# Experimental data: patent US20260258050A1, “IMMUNOMODULATOR” (HITGEN INC., priority 2023, published 2026)
# Molecular target: T1, Human IL-17A (Homo sapiens, UniProt Q16552)
# T1 sequence (Q16552 20-155 limits assumed): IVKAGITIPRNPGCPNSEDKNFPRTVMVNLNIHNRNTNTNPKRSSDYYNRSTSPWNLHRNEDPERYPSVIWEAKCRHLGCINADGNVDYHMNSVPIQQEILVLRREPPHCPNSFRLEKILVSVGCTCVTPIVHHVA
# Assay: IL-17A enzyme-linked immunosorbent assay (competitive ELISA, IL-17A/IL-17Ra receptor-ligand binding)
# Design: purchased Sino Biological Inc. 12047-H07B
# Details: human IL-17A coated plate, human IL-17Ra, read-out: IC50, inhibitory activity of compounds on human IL-17A
# Outline: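 Competitive ELISA with plates coated with human IL-17A at 0.2 μg/ml, blocked with 5% skim milk. Compound pre-incubated with IL-17A 10 min at 25 °C, then 16 nM IL-17Ra stock added for 30 min. Bound receptor detected by anti-Fc HRP/TMB, A450. IC50 from variable-slope fit of blank-corrected residual activity.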
row,Structure (SMILES),IC50 [nM]
1,[2H]C([2H])([2H])C([2H])([2H])n1nccc1C(=O)N[C@H](C(=O)Nc1cc2c(cc1F)-c1c(n[nH]c1C)CCOC2)C(C1CC1)C1CC1 [compound 90],≤ 50
2,[2H]C([2H])([2H])C([2H])(n1nccc1C(=O)N[C@H](C(=O)Nc1cc2c(cn1)-c1c(n[nH]c1C)CCOC2)C(C1CC1)C1CC1)C([2H])([2H])[2H] [compound 54],≤ 50
3,Cc1[nH]nc2c1-c1cnc(NC(=O)[C@@H](NC(=O)/C(F)=C\C3CC3)C(C3CC3)C3CC3)cc1COCC2 [compound 239],≤ 50
4,Cc1[nH]nc2c1-c1cc(F)c(NC(=O)[C@@H](NC(=O)c3ccnn3C(C)C)C(C3CC3)C3CC3)cc1COCC2 [compound 15],≤ 50
5,Cc1[nH]nc2c1-c1cc(F)c(NC(=O)[C@@H](NC(=O)c3ccnn3CCCF)C(C3CC3)C3CC3)cc1COCC2 [compound 86],≤ 50
6,Cc1[nH]nc2c1-c1cc(F)c(NC(=O)[C@@H](NC(=O)c3ccnn3C(C)C)C(C3CC3)C3CC3)cc1CN(C1CC(F)(F)C1)CC2 [compound 176],≤ 50
7,CCn1nccc1C(=O)N[C@H](C(=O)Nc1cc2c(cc1F)-c1c(n[nH]c1C)CCOC2)C(C1CC1)C1CC1 [compound 16],≤ 50
8,Cc1[nH]nc2c1-c1cc(F)c(NC(=O)[C@@H](NC(=O)c3ccnn3C(C)C)C(C3CC3)C3CC3)cc1CN(C1CCOCC1)CC2 [compound 174],≤ 50
9,Cc1[nH]nc2c1-c1cnc(NC(=O)[C@@H](NC(=O)c3ccnn3CCCF)C(C3CC3)C3CC3)cc1COCC2 [compound 124],≤ 50
10,Cc1[nH]nc2c1-c1cc(F)c(NC(=O)[C@@H](NC(=O)c3ccnn3C(C)C)C(C3CC3)C3CC3)cc1CN(C1CCC(F)(F)CC1)C(=O)C2 [compound 168],≤ 50
11,COCC(COC)n1nccc1C(=O)N[C@H](C(=O)Nc1cc2c(cc1F)-c1c(n[nH]c1C)CCOC2)C(C1CC1)C1CC1 [compound 99],50 to 150
12,Cc1[nH]nc2c1-c1cc(F)c(NC(=O)[C@@H](NC(=O)c3ccnn3C[C@@H]3C[C@H]3F)C(C3CC3)C3CC3)cc1COCC2 [compound 101],≤ 50
13,Cc1[nH]nc2c1-c1cc(F)c(NC(=O)[C@@H](NC(=O)/C(F)=C\C3CC3)C(C3CC3)C3CC3)cc1COCC2 [compound 230],≤ 50
14,Cc1[nH]nc2c1-c1cnc(NC(=O)[C@@H](NC(=O)c3ccnn3C(C)C)C(C3CC3)C3CC3)cc1CN(C1CC1)C(=O)C2 [compound 191],≤ 50
15,[2H]C([2H])(C1CC1)n1nccc1C(=O)N[C@H](C(=O)Nc1cc2c(cc1F)-c1c(n[nH]c1C)CCOC2)C(C1CC1)C1CC1 [compound 76],≤ 50
16,Cc1[nH]nc2c1-c1cc(F)c(NC(=O)[C@@H](NC(=O)c3ccnn3C(C)C)C(C3CC3)C3CC3)cc1CN(CC1CC1)CC2 [compound 166],≤ 50
17,CCn1nccc1C(=O)N[C@H](C(=O)Nc1ccc2c(c1)CNC(=O)Cc1n[nH]c(C)c1-2)C(C1CC1)C1CC1 [compound 28],≤ 50
18,Cc1[nH]nc2c1-c1cc(F)c(NC(=O)[C@@H](NC(=O)c3ccnn3CC3COC3)C(C3CC3)C3CC3)cc1COCC2 [compound 115],≤ 50
19,Cc1[nH]nc2c1-c1cnc(NC(=O)[C@@H](NC(=O)c3ccnn3C3CC3)C(C3CC3)C3CC3)cc1COCC2 [compound 237],≤ 50
20,Cc1[nH]nc2c1-c1cc(F)c(NC(=O)[C@@H](NC(=O)c3ccnn3CCOC(C)C)C(C3CC3)C3CC3)cc1COCC2 [compound 98],≤ 50
21,CSCCn1nccc1C(=O)N[C@H](C(=O)Nc1cc2c(cc1F)-c1c(n[nH]c1C)CCOC2)C(C1CC1)C1CC1 [compound 61],≤ 50
22,Cc1[nH]nc2c1-c1cc(F)c(NC(=O)[C@@H](NC(=O)c3cnnn3CCOC(F)F)C(C3CC3)C3CC3)cc1COCC2 [compound 108],≤ 50
23,Cc1[nH]nc2c1-c1cnc(NC(=O)[C@@H](NC(=O)c3ccnn3CC(F)(F)F)C(C3CC3)C3CC3)cc1COCC2 [compound 236],≤ 50
24,Cc1[nH]nc2c1-c1cc(F)c(NC(=O)[C@@H](NC(=O)c3ccnn3C)C(C3CC3)C3CC3)cc1COCC2 [compound 17],≤ 50
25,Cc1[nH]nc2c1-c1cc(F)c(NC(=O)[C@@H](NC(=O)c3ccnn3CC3CCC3)C(C3CC3)C3CC3)cc1COCC2 [compound 60],≤ 50
